Data: ChEMBL document CHEMBL3853268, “Thiosemicarbazone modification of 3-acetyl coumarin inhibits Aβ peptide aggregation and protect against Aβ-induced cytotoxicity” (Eur J Med Chem, 2016)
The source made the active and inactive calls. The calls are words filed in the database; no cut-off is given here.

How the values were obtained:
[1] = target: Amyloid-beta precursor protein (Homo sapiens) (UniProt P05067); test: Inhibition of HFIP-induced amyloid beta (1 to 42 residues) (unknown origin) aggregation at 1:1 protein to compound ratio preincubated for 15 mins followed by HFIP addition measured after 40 mins by silver staining-based native PAGE assay
Amyloid-beta precursor protein (Homo sapiens), sequence (P05067 whole entry, the tested form may be a part): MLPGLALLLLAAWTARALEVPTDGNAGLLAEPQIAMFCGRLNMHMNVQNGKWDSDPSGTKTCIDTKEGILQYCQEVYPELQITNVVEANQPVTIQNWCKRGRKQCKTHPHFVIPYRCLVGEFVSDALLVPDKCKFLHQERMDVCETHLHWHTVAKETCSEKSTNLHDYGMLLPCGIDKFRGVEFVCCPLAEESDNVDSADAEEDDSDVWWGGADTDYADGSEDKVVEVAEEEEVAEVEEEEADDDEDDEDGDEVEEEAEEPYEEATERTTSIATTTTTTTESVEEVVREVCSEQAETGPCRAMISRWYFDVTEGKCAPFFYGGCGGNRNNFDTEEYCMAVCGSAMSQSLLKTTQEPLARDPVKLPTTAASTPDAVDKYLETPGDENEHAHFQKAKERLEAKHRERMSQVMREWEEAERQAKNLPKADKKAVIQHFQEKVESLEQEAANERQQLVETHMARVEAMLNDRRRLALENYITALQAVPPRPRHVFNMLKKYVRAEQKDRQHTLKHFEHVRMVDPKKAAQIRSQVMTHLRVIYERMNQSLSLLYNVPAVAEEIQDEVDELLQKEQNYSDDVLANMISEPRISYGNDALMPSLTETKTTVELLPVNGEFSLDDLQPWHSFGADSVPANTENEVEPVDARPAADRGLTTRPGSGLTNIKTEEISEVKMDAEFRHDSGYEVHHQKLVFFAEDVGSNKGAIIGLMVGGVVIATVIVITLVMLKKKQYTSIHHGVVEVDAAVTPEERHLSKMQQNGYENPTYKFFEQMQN

[2] = target: Amyloid-beta precursor protein (Homo sapiens) (UniProt P05067); test: Inhibition of HFIP-induced amyloid beta (1 to 42 residues) (unknown origin) aggregation assessed as decrease in levels of higher aggregates at 1:1 protein to compound ratio preincubated for 15 mins followed by HFIP addition measured after 40 mins by silver staining-based native PAGE assay
[3] = Neuroprotective activity against amyloid beta (1 to 42 residues)-induced toxicity in human SH-SY5Y cells assessed as cell viability at 5 to 20 uM after 3 days by MTT assay (reference value: 28%); format: functional
[4] = Cytotoxicity against human SH-SY5Y cells assessed as decrease in cell viability after 24 hrs by MTT assay; format: toxicity, cell-based
[5] = target: Amyloid-beta precursor protein (Homo sapiens) (UniProt P05067); test: Inhibition of HFIP-induced amyloid beta (1 to 42 residues) (unknown origin) aggregation at 1:1 protein to compound ratio preincubated for 15 mins followed by HFIP addition measured after 40 mins by ANS extrinsic fluorescence assay relative to control
[6] = target: Amyloid-beta precursor protein (Homo sapiens) (UniProt P05067); test: Inhibition of HFIP-induced amyloid beta (1 to 42 residues) (unknown origin) aggregation at 1:1 protein to compound ratio preincubated for 15 mins followed by HFIP addition measured after 40 mins by turbidity assay relative to control
[7] = target: Amyloid-beta precursor protein (Homo sapiens) (UniProt P05067); test: Inhibition of HFIP-induced amyloid beta (1 to 42 residues) (unknown origin) aggregation at 1:0.5 protein to compound ratio preincubated for 15 mins followed by HFIP addition measured after 40 mins by ThT fluorescence assay
[8] = target: Amyloid-beta precursor protein (Homo sapiens) (UniProt P05067); test: Inhibition of HFIP-induced amyloid beta (1 to 42 residues) (unknown origin) aggregation at 1:1 protein to compound ratio preincubated for 15 mins followed by HFIP addition measured after 40 mins by ThT fluorescence assay relative to control
[9] = target: Amyloid-beta precursor protein (Homo sapiens) (UniProt P05067); test: Inhibition of HFIP-induced amyloid beta (1 to 42 residues) (unknown origin) aggregation at 1:0.75 protein to compound ratio preincubated for 15 mins followed by HFIP addition measured after 40 mins by ThT fluorescence assay
[10] = target: Amyloid-beta precursor protein (Homo sapiens) (UniProt P05067); test: Inhibition of HFIP-induced amyloid beta (1 to 42 residues) (unknown origin) aggregation at 1:0.25 protein to compound ratio preincubated for 15 mins followed by HFIP addition measured after 40 mins by ThT fluorescence assay relative to control

Structure (SMILES)	inhibition [1]	inhibition [2]	Activity [3]	IC50 ([4]; sh-sy5y)	inhibition [5]	inhibition [6]	inhibition [7]	inhibition [8]	inhibition [9]	inhibition [10]	IC50 at 24 h ([4]; human, SH-SY5Y cells)
Oc1c(I)cc(Cl)c2cccnc12	Active	–	–	–	–	–	–	–	–	–	–
C/C(=N\NC(N)=S)c1cc2ccccc2oc1=O	Active	Active	95%	≤ 185 µM	86%	78%	Active	80%	Active	53%	–
CC(=O)c1cc2ccccc2oc1=O [3-ACETYLCOUMARIN]	Active	Active	77%	–	40%	59%	Active	50%	Active	40%	75 µM
